What was measured:
obese rats = assay: 16-day treatment study in obese rats (bodyweight, food intake, fat depots, liver lipid analysis); assay type: in vivo, rat; settings: 16 days; for liver arachidonic acid / liver free fatty acids / liver triacylglycerols: extracted liver tissue, 7.5 μg/kg/day
Procedure: Two studies were conducted, and in both studies the obese rats used were generated as follows:
To obtain obese rats, male Sprague-Dawley rats aged 12 weeks were placed on a diet consisting of regular rodent chow and a 60 kcal % high-fat diet (no. D12495; Research Diets) for a total of 12 wk. Following the 12 weeks on high fat diet the rats were randomized into treatment groups based on weight.
The initial study was a 16-day treatment study, in which three groups were studied: Lean (same age but no high fat diet), vehicle (obese control group), and KBP-042 at 7.5 μg/kg/day. Throughout the experiment the bodyweight and food intake were monitored, and at termination liver and fat depots were collected for weighing and potential analysis of triglyceride, free fatty acids and arachidonic acid content.
As the quantification procedure contains several steps an internal standard was added to each sample extraction, which enables the results to be normalized and correcting for any loss. The internal standard was prepared as a solution containing 3.66 mg/mL C19:0 TAG (Sigma-Aldrich, product number: T4632), 2.73 mg/mL C17:0 Phospholipid (PL), 0.4 mg/mL C19:0 FFA (Sigma-Aldrich, product number: N-8263), 0.096 mg/mL C15:0 Diacylglycerol (DAG), 0.06 mg/mL d31-tagged Ceramide, 0.03 mg/mL d7-tagged Sphingosine, 1.036 mg/mL Sitostanol, 0.04 mg/mL d31-tagged Sphingomyelin and 1.596 mg/mL C15:0 Cholesterolester in Chloroform:Methanol 2:1 (v/v).
The method is based on Folch et al. At the time of extraction the samples were portioned at 500 mg individually and transferred to glass tubes, followed by the addition of 10 mL 100 μg/mL butylated hydroxytoluene (BHT) in chloroform:methanol 2:1 (v:v), and placed on ice. Each sample was added 150 μL of the internal standard solution. Homogenization was performed using a rotor-stator submersion blender (IKA Ultra-Turrax T25) with the sample tubes submerged in ice-water. The samples were each homogenized for 3×10 seconds with 50 second intervals, where after the homogenate is transferred to 35 mL screw-cap centrifuge tubes. The aggregate was cleaned in 5 mL chloroform:methanol 2:1 in the original glass tube, which was then transferred quantitatively to the homogenate. The homogenate was added 3 mL (0.24 times the total homogenate volume) of 0.73% (w/v) NaCl in MiliQ H2O and mixed, followed by centrifugation at 2800·g for 5 minutes at 4° C., to create a 2-phase system. The lower phase was transferred to a clean 12.5 mL centrifugation tube. The homogenate (the upper phase) was then added 3 mL chloroform:methanol 85:15 and mixed, followed by another centrifugation step. The new lower phase was then isolated and added to the first extract and dried down under nitrogen in a 40° C. water bath, followed by resolubilization in 300 μL chloroform:methanol 2:1. At this point the lipid extracts can be stored at −20° C.
The lipid extracts were fractionated on amino-propyl columns (Phenomenex Strata NH2, product number: 8B-S009-HBJ). The columns were pre-washed with 2×2 mL chloroform:methanol 23:1 (v:v) and left to dry. During fractionation the columns were not allowed to dry. The columns were primed with 2×1 mL hexane followed by application of the lipid extracts. Fraction 1 containing cholesterol esters was eluted with 3 mL Hexane into a clean tube. Fraction 2 containing TAG was eluted using 3 mL hexane:chloroform:ethylacetate 100:5:5 (v:v:v) into a clean tube. Fraction 3 containing DAG, Cholesterol and Ceramide was eluted using 3×2 mL chloroform:methanol 23:1 (v:v) into a new glass. Fraction 4 containing FFA was eluted using 5 mL 2% acetic acid in diethyl ether into a new glass. Fraction 5 containing PL was eluted using 4 mL methanol into a new glass. Fractions 1 and 2 were dried down under nitrogen at 40° C. and re-dissolved in 300 μL chloroform:methanol 95:5 and stored at −20° C. […]

HFD rats = assay: Oral glucose tolerance test (OGTT); assay type: in vivo, rat
Description: Animals were challenged with an oral glucose bolus (2 g/kg) at time=0, and dosed with either KBP-042 or saline at t=−30. FIGS. 12A, 12B and 12C show blood glucose levels during acute OGTT, OGTT after 3 weeks, and OGTT after 7 weeks respectively. FIGS. 12D, 12E and 12F show the area under the curve for acute OGTT, OGTT after 3 weeks, and OGTT after 7 weeks respectively. FIGS. 12G, 12H and 12I show insulin levels during acute OGTT, OGTT after 3 weeks, and OGTT after 7 weeks respectively. FIGS. 12J, 12K and 12L show insulin levels during acute OGTT, OGTT after 3 weeks, and OGTT after 7 weeks respectively expressed as area under the curve. n=10 for all groups except vehicle (n=12). Statistical analysis between groups were performed as a One-way ANOVA followed by Tukey's post-hoc test with the following annotations: *P<0.05, **P<0.01, ***P<0.001 vs. HFD-Vehicle. ††P<0.01, †††P<0.001 vs. Pair-fed 5 μg/kg. ‡‡P<0.01, ‡‡‡P<0.001 vs. Pair-fed 10 μg/kg, Data are expressed as mean±SEM.

[1] = KBP-042 7.5 μg/kg/day, vs saline

“AcCSNLSTCVLGKLSQELHKLQTYPRTDVGANAP-NH2 (Ac-CSNLSTCVLGKLSQELHKLQTYPRTDVGANAP-NH2; not fully specified (bridges); cysteine pairing not given here) [KBP-042, calcitonin mimetic with Cys1-Cys7 disulphide bridge]” was tested, and the “fat depots (epididymal visceral fat)” value (obese rats; KBP-042 7.5 μg/kg/day, at termination) was “fats depots were reduced”, the body weight (obese rats; [1]) was “marked weight reduction” and the food intake (obese rats; [1]) was “pronounced reduction in food intake early”. The liver arachidonic acid (obese rats) was “reduced the levels”, the “liver free fatty acids” value (obese rats) was “reduced” and the liver triacylglycerols (obese rats) was “reduced triacylglycerols”. For the same substance, the liver arachidonic acid (obese rats; listed as KBP-peptide) was “improvement”, the “liver free fatty acids” value (obese rats; listed as KBP-peptide) was “improvement” and the liver triacylglycerols (obese rats; listed as KBP-peptide) was “improvement”. The blood glucose (HFD rats; 30 minutes after subcutaneous administration (t=0), acute) was “hyperglycemic effect”, the “glucose tAUC” value (HFD rats; OGTT after 3 weeks, 2.5 μg/kg, 5 μg/kg and 10 μg/kg) was “significantly lowered” and the “glucose tolerance (tAUC)” value (HFD rats; OGTT at week 7, 5 μg/kg and 10 μg/kg) was “improved glucose tolerance”. For the same substance, the “glucose total area under the curve (tAUC)” value (HFD rats; acute OGTT, 10 μg/kg) was “significantly increased”, the “glucose tolerance in OGTT” value (HFD rats; acute dose, 10 μg/kg, compared to HFD-Vehicle) was “slightly impaired glucose tolerance” and the “insulin levels during OGTT” value (HFD rats; acute, first 60 minutes after glucose administration) was “reduced”. The “insulin levels during OGTT” value (HFD rats; after 3 weeks, all treatment groups except 0.625 μg/kg) was “lowered” and the “insulin levels during OGTT” value (HFD rats; week 7, three highest dose groups, first 60 minutes after glucose administration) was “drastically reduced”.

— patent US10350272B2, “Calcitonin analogues for treating diseases and disorders” (KeyBioscience AG, priority 2015, dated 2019)
